Test results: PubChem BioAssay (NCI)
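Grown in 96-well plates, cells were treated for 48 hours with each compound at five concentrations. Insufficient inhibition: endpoint recorded as highest concentration tested. At the GI50, growth is halved. The concentration for full growth arrest is given as TGI.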

What was measured:
Assay in all cases: DTP human tumour cell line panel, 48 h
MALME-3M melanoma = test system: MALME-3M melanoma
U251 CNS = test system: U251 CNS
OVCAR-5 ovarian = test system: OVCAR-5 ovarian
HCT-15 colon = test system: HCT-15 colon
ACHN renal = test system: ACHN renal
LOX IMVI melanoma = test system: LOX IMVI melanoma
786-0 renal = test system: 786-0 renal
NCI-H226 lung = test system: NCI-H226 lung
SK-MEL-5 melanoma = test system: SK-MEL-5 melanoma
NCI/ADR-RES ovarian = test system: NCI/ADR-RES ovarian

Row | SMILES | TGI (MALME-3M melanoma) [µM] | TGI (U251 CNS) [µM] | TGI (OVCAR-5 ovarian) [µM] | TGI (HCT-15 colon) [µM] | TGI (ACHN renal) [µM] | TGI (LOX IMVI melanoma) [µM] | TGI (786-0 renal) [µM] | TGI (NCI-H226 lung) [µM] | TGI (SK-MEL-5 melanoma) [µM] | GI50 (MALME-3M melanoma) [µM] | GI50 (U251 CNS) [µM] | GI50 (OVCAR-5 ovarian) [µM] | GI50 (NCI-H226 lung) [µM] | GI50 (HCT-15 colon) [µM] | GI50 (ACHN renal) [µM] | GI50 (LOX IMVI melanoma) [µM] | GI50 (SK-MEL-5 melanoma) [µM] | GI50 (786-0 renal) [µM] | GI50 (NCI/ADR-RES ovarian) [µM] | TGI (NCI/ADR-RES ovarian) [µM]
1 | O=C(CC(=O)N1N=C(n2ccc3ccccc32)CC1c1ccccc1)Nc1ccc(Cl)cc1 (stereo not given) | > 100 | > 100 | > 100 | > 100 | > 100 | > 100 | > 100 | – | – | – | – | – | – | – | – | – | – | – | – | –
2 | CCc1cccc(C)c1N1C(=O)C(=O)C(c2nc3ccccc3o2)/C(=N/NC(=S)NN)C1=O (stereo not given) | > 100 | > 100 | > 100 | > 100 | > 100 | > 100 | > 100 | > 100 | > 100 | – | – | – | – | – | – | – | – | – | – | –
3 | CN1CCN(Cc2ccc(NC(=O)c3cncc(C#Cc4c(N)ncc5c(F)cccc45)c3)cc2C(F)(F)F)CC1 | 1.23 | 1.42 | 1.56 | 1.3 | 1.36 | 1.35 | 1.62 | 3.38 | 1.55 | 0.443 | 0.725 | 0.794 | 0.689 | 0.6 | 0.708 | 0.646 | 0.841 | 0.873 | – | –
4 | N#CC(C#N)=Cc1ccc(C(O)P(=O)(O)O)cc1 (stereo not given) | > 100 | > 100 | > 100 | > 100 | > 100 | > 100 | > 100 | > 100 | > 100 | – | – | – | – | – | – | – | – | – | – | –
5 | COc1cccc(CCNC(=O)CC(c2ccccc2)(c2ccccc2)c2ccccc2)c1 | – | 55.6 | > 100 | > 100 | 94.8 | – | > 100 | – | > 100 | – | 4.86 | 11.7 | – | > 100 | 7.84 | – | 4.84 | 10.6 | 5.26 | > 100
6 | O=C(O)CCC(=O)Oc1ccc(O)c2c1CCCC2=O | > 100 | > 100 | > 100 | > 100 | > 100 | > 100 | > 100 | > 100 | > 100 | – | – | – | – | – | – | – | – | – | – | –
7 | CCOC(=O)NC(=O)c1cn(CCCCCCCCCCC(=O)NCCCN2CCN(CCCNC(=O)CCCCCCCCCCn3cc(C(=O)NC(=O)OCC)c(=O)[nH]c3=O)CC2)c(=O)[nH]c1=O | > 100 | > 100 | > 100 | > 100 | > 100 | > 100 | > 100 | – | – | – | – | – | – | – | – | – | – | – | – | –
8 | O=c1c2cccc(F)c2sc2c(NCCCNCCO)nc3ccccc3c12 | 3.12 | – | 3.07 | 2.65 | 2.54 | 2.38 | 2.84 | 3.35 | 3.09 | 1.61 | – | 1.65 | 1.7 | 1.25 | 1.28 | 1.13 | 1.71 | 1.44 | 1.52 | 3.06
9 | N#CC(C(=O)CCC(=O)Nc1ccc(Cl)cc1)c1ccc(Cl)cc1 (stereo not given) | > 100 | > 100 | > 100 | > 100 | > 100 | > 100 | > 100 | > 100 | > 100 | – | – | – | – | – | – | – | – | – | – | –
10 | Cc1cc(Cl)ccc1NC(=O)CC1SC(=NC(=O)c2ccccc2Cl)NC1=O (stereo not given) | 37.1 | 30.1 | 84 | 33.1 | 30.8 | 38.6 | 35.7 | 75 | 95.7 | – | – | – | – | – | – | – | – | – | – | –
11 | COc1ccc(C2=NN(C=O)C(c3ccc(OS(=O)(=O)c4ccc(C)cc4)c(OC)c3)C2)cc1 (stereo not given) | 49.3 | – | > 100 | > 100 | > 100 | > 100 | > 100 | > 100 | – | 7.09 | – | > 100 | 8.81 | 4.19 | 10.1 | 9.41 | – | 21.6 | 4.5 | > 100
12 | Cc1ccc2nc(Sc3c([N+](=O)[O-])ncn3C)[nH]c2c1 | 47.4 | > 100 | > 100 | 32.4 | > 100 | > 100 | > 100 | 45 | 33.1 | – | – | – | – | – | – | – | – | – | – | –
13 | COc1ccc(CN2C(=O)/C(=C\C(=O)c3ccc(OCCN4CCCC4)cc3)c3ccccc32)cc1 | 3.35 | – | 4.76 | 3.24 | 3.02 | – | 3.19 | 52.9 | 38.8 | 1.75 | – | 1.78 | 20.8 | 1.65 | 1.66 | – | 16.2 | 1.68 | 5.71 | 47.7
14 | c1ccc(COCC[P+](c2ccccc2)(c2ccccc2)c2ccccc2)cc1 | – | 11.7 | > 100 | > 100 | 23.5 | 6.05 | 15.6 | 29.8 | 1.61 | – | 0.869 | 2.85 | 1.22 | 14.2 | 4.56 | 1.87 | 0.396 | 3.49 | 19.7 | 57.1
15 | N.N.N.N.N.N#Cc1nn[n-]n1.[Cl-].[Co+3] | > 100 | > 100 | > 100 | > 100 | > 100 | > 100 | > 100 | – | > 100 | > 100 | > 100 | > 100 | – | > 100 | > 100 | > 100 | > 100 | > 100 | – | –
16 | O=C(Nc1ccccc1)n1cc(-c2ccccn2)c(N2CCOCC2)n1 | 8.78 | > 100 | – | > 100 | > 100 | > 100 | 74.7 | > 100 | > 100 | – | – | – | – | – | – | – | – | – | – | –
17 | COc1ccc(NC(=S)C#N)cc1 | – | > 100 | > 100 | > 100 | > 100 | > 100 | > 100 | > 100 | > 100 | – | – | – | – | – | – | – | – | – | – | > 100
18 | CN1C(c2ccccc2)CC(C)(O)CC1c1ccccc1 (stereo not given) | > 100 | > 100 | > 100 | > 100 | > 100 | > 100 | > 100 | > 100 | > 100 | – | – | – | – | – | – | – | – | – | – | –
